Measurements published in patent EP4775575A1, “COMPOUND USED AS CDK4 KINASE INHIBITOR AND USE THEREOF” (TYK Medicines, Inc., priority 2023, dated 2025).

Key:
[1] = test system: human ovarian cancer cells A2780; assay: Cell anti-proliferation assay (MTT), A2780; format: cell-based; details: Homo sapiens, 120 h, incubated for 5 days
Experimental: (§1) Human breast cancer cells MCF-7, human ovarian cancer cells A2780, human mantle cell lymphoma cells JEKO-1. DMEM medium (Bio-Channel), DMSO (dimethyl sulfoxide), MTT (thiazolyl blue), 0.25% EDTA-Trypsin (trypsin digestive solution), 1×PBS (phosphate buffered saline, pH 7.2), 96-well plate (Corning), fetal bovine serum (FBS), 10,000 U/mL penicillin-G/streptomycin, high-speed refrigerated centrifuge (EPPENDORF 5810R), and microplate reader (Tecan Spark).
(§2) • A) Tumor cells were cultured in DMEM (high glucose, containing 10% FBS and 100 U/mL penicillin-G/streptomycin) at 37 °C, 5% CO2 and saturated humidity until 80-90% confluence. • B) The medium in the 10 cm culture dish was removed. • C) Cells were rinsed once with 10 mL of 1×PBS. • D) 4 mL of 0.25% EDTA-Trypsin was added, and the cells were digested in a 37 °C, 5% CO2 incubator for 5 minutes. The mixture was transferred to a 15 mL centrifuge tube, centrifuged at 200 g for 5 minutes, and the supernatant was discarded to obtain cell pellet. • E) The cells were resuspended in 4 mL of DMEM medium, counted, and adjusted to 50,000 cells/mL. • F) 100 µL of cell suspension was added to each well of a 96-well plate, and the plate was incubated overnight at 37 °C in a 5% CO2 incubator.
(§3) • A) Gradient dilution solutions of the test compounds were prepared: the test compound was prepared into a 1 mM stock solution. Then 1.5 µL of the stock solution was dissolved in 1.5 mL of DMSO-free medium, followed by 3-fold serial gradient dilution with medium containing 0.1% DMSO to give 9 concentrations.
(§4) • A) The cell culture plate was taken out, and 10 µL of 5 mg/mL MTT was added in a biological safety cabinet; • B) The plate was returned to the incubator and incubated for another 3 hours; • C) The cell culture plate was taken out and the medium was removed, 100 µL of isopropanol (containing 0.4 mM HCl, 0.1% NP-40) was added, and the plate was shaken at room temperature for 30 minutes; • D) The absorbance at 570 nm was measured using a TECAN microplate reader.

CDK4/CycD1 = CDK4/CycD1 (Homo sapiens, UniProt P11802); assay: Kinase activity assay (MSA, EZ Reader) against CDK4
[2] = test system: human mantle cell lymphoma cells JEKO-1; assay: Cell anti-proliferation assay (MTT), JEKO-1; format: cell-based; details: Homo sapiens, 120 h, JEKO-1 cells, incubated for 5 days
Experimental: as §1, §2, §3, §4

[3] = test system: Human breast cancer cells MCF-7; assay: Cell anti-proliferation assay (MTT), MCF-7; format: cell-based; details: Homo sapiens, MCF7, 120 h, MCF-7 cells, incubated for 5 days
Experimental: as §1, §2, §3, §4

CDK6/CyclinD3 = molecular target: T1, CDK6/CyclinD3 (Homo sapiens, UniProt Q00534); assay: Kinase activity assay (MSA, EZ Reader) against CDK6; format: biochemical; details: CDK6/CyclinD3 5.00 nM, ATP 350 µM, FL-Peptide34, 10mM MgCl2
T1 construct: purchased Carna 04-107
T1 sequence (Q00534 whole entry): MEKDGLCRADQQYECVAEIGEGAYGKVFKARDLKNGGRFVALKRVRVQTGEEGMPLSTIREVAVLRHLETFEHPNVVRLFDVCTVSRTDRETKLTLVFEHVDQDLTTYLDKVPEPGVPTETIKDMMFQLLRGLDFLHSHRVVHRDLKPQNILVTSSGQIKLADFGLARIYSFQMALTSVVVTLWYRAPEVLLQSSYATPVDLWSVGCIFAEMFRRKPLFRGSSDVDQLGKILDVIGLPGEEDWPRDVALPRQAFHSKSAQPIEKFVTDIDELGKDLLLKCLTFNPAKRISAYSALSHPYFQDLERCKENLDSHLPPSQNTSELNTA
T1 sequence (P30281 whole entry partner): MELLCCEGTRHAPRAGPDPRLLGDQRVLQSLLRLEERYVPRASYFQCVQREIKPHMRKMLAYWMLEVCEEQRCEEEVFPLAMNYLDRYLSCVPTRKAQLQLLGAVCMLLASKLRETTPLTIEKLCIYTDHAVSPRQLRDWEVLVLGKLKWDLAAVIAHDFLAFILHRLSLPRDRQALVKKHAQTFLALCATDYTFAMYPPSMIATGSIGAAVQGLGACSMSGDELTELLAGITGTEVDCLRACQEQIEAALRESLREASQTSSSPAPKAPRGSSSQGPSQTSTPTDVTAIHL

CDK4/CycD1, sequence (P11802 whole entry): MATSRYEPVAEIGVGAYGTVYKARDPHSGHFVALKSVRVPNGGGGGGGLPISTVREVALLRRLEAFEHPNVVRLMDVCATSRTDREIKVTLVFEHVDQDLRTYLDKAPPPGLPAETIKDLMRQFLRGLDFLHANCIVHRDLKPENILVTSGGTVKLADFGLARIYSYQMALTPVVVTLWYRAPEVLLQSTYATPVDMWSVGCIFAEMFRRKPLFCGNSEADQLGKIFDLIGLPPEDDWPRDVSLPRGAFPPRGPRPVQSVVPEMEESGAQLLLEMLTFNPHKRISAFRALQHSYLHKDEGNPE

Row | Structure (SMILES) | IC50 [1] | IC50 (CDK4/CycD1) | IC50 [2] | IC50 [3] | IC50 (CDK6/CyclinD3)
1 | CC(C)n1c(N(C)C)nc2c(F)cc(-c3nc(NC4CCOCC4)ncc3Cl)cc21 [TB-2, 6-(5-chloro-2-((tetrahydro-2H-pyran-4-yl)amino)pyrimidin-4-yl)-4-fluoro-1-isopropyl-N,N-dimethyl-1H-benzo[d]imidazol-2-amine] | ≤ 500 nM | 18 nM | ≤ 500 nM | ≤ 500 nM | 319 nM
2 | CC(C)n1c(N(C)C)nc2c(F)cc(-c3nc(NC4CCN(S(C)(=O)=O)CC4)ncc3Cl)cc21 [TB-3, 6-(5-chloro-2-((1-(methylsulfonyl)piperidin-4-yl)amino)pyrimidin-4-yl)-4-fluoro-1-isopropyl-N,N-dimethyl-1H-benzo[d]imidazol-2-amine] | ≤ 500 nM | 6.97 nM | ≤ 500 nM | ≤ 500 nM | 74.9 nM
3 | CC(C)n1c(N(C)C)nc2c(F)cc(-c3nc(N[C@H]4CC[C@H](NS(C)(=O)=O)CC4)ncc3Cl)cc21 [TB-5] | ≤ 500 nM | 4.24 nM | ≤ 500 nM | ≤ 500 nM | 71.6 nM
4 | CC(C)n1c(N2CC[C@H](O)C2)nc2c(F)cc(-c3nc(N[C@@H]4CCOC[C@H]4O)ncc3Cl)cc21 [TB-6, (S)-1-(6-(5-chloro-2-(((3S,4R)-3-hydroxytetrahydro-2H-pyran-4-yl)amino)pyrimidin-4-yl)-4-fluoro-1-isopropyl-1H-benzo[d]imidazol-2-yl)pyrrolidin-3-ol] | ≤ 500 nM | 10.8 nM | ≤ 500 nM | 500 to 2000 nM | 190 nM
5 | CC(C)n1c(N2CC[C@@H](O)C2)nc2c(F)cc(-c3nc(N[C@@H]4CCOC[C@H]4O)ncc3Cl)cc21 [TB-7, (R)-1-(6-(5-chloro-2-(((3S,4R)-3-hydroxytetrahydro-2H-pyran-4-yl)amino)pyrimidin-4-yl)-4-fluoro-1-isopropyl-1H-benzo[d]imidazol-2-yl)pyrrolidin-3-ol] | ≤ 500 nM | 2.94 nM | ≤ 500 nM | ≤ 500 nM | 113 nM
6 | COC(=O)N(C)c1nc2c(F)cc(-c3nc(N[C@@H]4CCOC[C@H]4O)ncc3Cl)cc2n1C(C)C [TB-8, methyl (6-(5-chloro-2-(((3S,4R)-3-hydroxytetrahydro-2H-pyran-4-yl)amino)pyrimidin-4-yl)-4-fluoro-1-isopropyl-1H-benzo[d]imidazol-2-yl)(methyl)carbamate] | ≤ 500 nM | 18.8 nM | ≤ 500 nM | 500 to 2000 nM | 334 nM
7 | CC(C)n1c(N(C)CCO)nc2c(F)cc(-c3nc(N[C@@H]4CCOC[C@H]4O)ncc3Cl)cc21 [TB-9, (3S,4R)-4-((5-chloro-4-(4-fluoro-2-((2-hydroxyethyl)(methyl)amino)-1-isopropyl-1H-benzo[d]imidazol-6-yl)pyrimidin-2-yl)amino)tetrahydro-2H-pyran-3-ol] | ≤ 500 nM | 40.1 nM | ≤ 500 nM | 500 to 2000 nM | 223 nM
8 | CC(C)n1c(N2CCCC2)nc2c(F)cc(-c3nc(N[C@@H]4CCOC[C@H]4O)ncc3Cl)cc21 [TB-11, (3S,4R)-4-((5-chloro-4-(4-fluoro-1-isopropyl-2-(pyrrolidin-1-yl)-1H-benzo[d]imidazol-6-yl)pyrimidin-2-yl)amino)tetrahydro-2H-pyran-3-ol] | ≤ 500 nM | 6.45 nM | ≤ 500 nM | ≤ 500 nM | 202 nM
9 | CC(C)n1c(N(C)C)nc2c(F)cc(-c3nc(N[C@@H]4CCN(S(C)(=O)=O)C[C@H]4O)ncc3Cl)cc21 [TB-13, (3R,4R)-4-((5-chloro-4-(2-(dimethylamino)-4-fluoro-1-isopropyl-1H-benzo[d]imidazol-6-yl)pyrimidin-2-yl)amino)-1-(methylsulfonyl)piperidin-3-ol] | ≤ 500 nM | 1.27 nM | ≤ 500 nM | ≤ 500 nM | 18.6 nM
10 | CC(C)n1c(N2CC(O)C2)nc2c(F)cc(-c3nc(N[C@@H]4CCOC[C@H]4O)ncc3Cl)cc21 [TB-14, 1-(6-(5-chloro-2-(((3S,4R)-3-hydroxytetrahydro-2H-pyran-4-yl)amino)pyrimidin-4-yl)-4-fluoro-1-isopropyl-1H-benzo[d]imidazol-2-yl)azetidin-3-ol] | ≤ 500 nM | 6.37 nM | ≤ 500 nM | ≤ 500 nM | 235 nM
11 | CCN1CCN(Cc2ccc(Nc3ncc(Cl)c(-c4cc(F)c5nc(N(C)C)n(C(C)C)c5c4)n3)nc2)CC1 [TB-16] | ≤ 500 nM | 6.92 nM | ≤ 500 nM | ≤ 500 nM | 44.6 nM
12 | COc1cc(N2CCNCC2)ccc1Nc1ncc(Cl)c(-c2cc(F)c3nc(N(C)C)n(C(C)C)c3c2)n1 [TB-17, 6-(5-chloro-2-((2-methoxy-4-(piperazin-1-yl)phenyl)amino)pyrimidin-4-yl)-4-fluoro-1-isopropyl-N,N-dimethyl-1H-benzo[d]imidazol-2-amine] | 500 to 2000 nM | 33.8 nM | 500 to 2000 nM | 500 to 2000 nM | 297 nM
13 | CC(C)n1c(N(C)C)nc2c(F)cc(-c3nc(Nc4ccc(N5CCNCC5)cn4)ncc3Cl)cc21 [TB-18, 6-(5-chloro-2-((5-(piperazin-1-yl)pyridin-2-yl)amino)pyrimidin-4-yl)-4-fluoro-1-isopropyl-N,N-dimethyl-1H-benzo[d]imidazol-2-amine] | ≤ 500 nM | 2.6 nM | ≤ 500 nM | ≤ 500 nM | 13.7 nM
14 | CC(C)n1c(N2CCCOC2=O)nc2c(F)cc(-c3nc(N[C@@H]4CCOC[C@H]4O)ncc3Cl)cc21 [TB-25] | ≤ 500 nM | 43.4 nM | ≤ 500 nM | 500 to 2000 nM | > 500 nM
15 | CC(C)n1c(N2CCOC2=O)nc2c(F)cc(-c3nc(NC4CCN(S(C)(=O)=O)CC4)ncc3Cl)cc21 [TB-26] | ≤ 500 nM | 18.6 nM | ≤ 500 nM | ≤ 500 nM | 200 nM
16 | CC(C)n1c(N2CCOC2=O)nc2c(F)cc(-c3nc(NC4CCN(S(C)(=O)=O)CC4)ncc3F)cc21 [TB-28] | ≤ 500 nM | 8.57 nM | ≤ 500 nM | ≤ 500 nM | 154 nM
17 | CC(C)n1c(N2CCOC2=O)nc2c(F)cc(-c3nc(NC4CCN(S(=O)(=O)C(C)C)CC4)ncc3Cl)cc21 [TB-32] | ≤ 500 nM | 12.3 nM | ≤ 500 nM | ≤ 500 nM | 145 nM
18 | CC(C)n1c(N2CCOC2=O)nc2c(F)cc(-c3nc(NC4CCN(S(=O)(=O)C5CC5)CC4)ncc3Cl)cc21 [TB-33] | ≤ 500 nM | 8.37 nM | ≤ 500 nM | ≤ 500 nM | 61.7 nM
19 | CC(C)n1c(N2CCOC2=O)nc2c(F)cc(-c3nc(NC4CCN(S(C)(=O)=O)CC4(F)F)ncc3Cl)cc21 (centres unmarked) [TB-35] | ≤ 500 nM | 15.5 nM | ≤ 500 nM | ≤ 500 nM | 167 nM
20 | CC(C)n1c(N2CCOC2=O)nc2c(F)cc(-c3nc(Nc4ccc(S(=O)(=O)NCCN(C)C)cc4)ncc3Cl)cc21 [TB-38, 4-((5-chloro-4-(4-fluoro-1-isopropyl-2-(2-oxooxazolidin-3-yl)-1H-benzo[d]imidazol-6-yl)pyrimidin-2-yl)amino)-N-(2-(dimethylamino)ethyl)benzenesulfonamide] | ≤ 500 nM | 18.5 nM | ≤ 500 nM | ≤ 500 nM | 76.6 nM
21 | CC1CCN(C)c2nc3c(F)cc(-c4nc(NC5CCN(S(C)(=O)=O)CC5)ncc4Cl)cc3n21 (centres unmarked) [TB-51, 5-chloro-4-(9-fluoro-1,4-dimethyl-1,2,3,4-tetrahydrobenzo[4,5]imidazo[1,2-a]pyrimidin-7-yl)-N-(1-(methylsulfonyl)piperidin-4-yl)pyrimidin-2-amine] | ≤ 500 nM | 2.23 nM | ≤ 500 nM | ≤ 500 nM | 27.6 nM
22 | CNS(=O)(=O)c1ccc(Nc2ncc(Cl)c(-c3cc(F)c4nc5n(c4c3)C(C)CCN5C)n2)cc1 (centres unmarked) [TB-53, 4-((5-chloro-4-(9-fluoro-1,4-dimethyl-1,2,3,4-tetrahydrobenzo[4,5]imidazo[1,2-a]pyrimidin-7-yl)pyrimidin-2-yl)amino)-N-methylbenzenesulfonamide] | ≤ 500 nM | 10.6 nM | ≤ 500 nM | ≤ 500 nM | 56.9 nM
